{"source": "patent US20030096015A1", "about": "“Cytogenic/nucleogenic healing” (priority 1997, published 2003)", "system": "multiple of infections (MOI)"}
{"molecule": "OC[C@H]1O[C@@](CO)(O[C@H]2O[C@H](CO)[C@@H](O)[C@H](O)[C@H]2O)[C@@H](O)[C@@H]1O", "note": "[5% Sucrose, sucrose]", "values": [{"measurement": "bacterial and viral growth / resistance to proteolysis by MOI", "setting": "medium streaked with mixed MOI culture", "value": "bacterial activity and viral replication at exponential rate"}, {"measurement": "Comparative Degree of Resistance", "setting": "resistance to proteolysis by MOI, ambient temperature (24° C.)", "value": 5.0, "unit": "h"}, {"measurement": "Relative Resistance", "setting": "resistance to proteolysis by MOI, ambient temperature (24° C.), 5% Sucrose = 1.0", "value": 1.0}]}
